According to ChEMBL document CHEMBL5465560, “Selectivity Literature for EUbOPEN Chemogenomic Library” (2024):
Values belong to the compound of their own block, whether it stands above or below them.

Columns and labels:
[1] = target: T1, Dual specificity mitogen-activated protein kinase kinase 5 (Homo sapiens) (UniProt Q13163); experiment: Selectivity interaction (Ambit KINOMEscan and KiNATiv profiling in Jurkat cells) EUB0000090b MAP2K5; type: cell-based; conditions: at 1 µM
T1 sequence (whole entry): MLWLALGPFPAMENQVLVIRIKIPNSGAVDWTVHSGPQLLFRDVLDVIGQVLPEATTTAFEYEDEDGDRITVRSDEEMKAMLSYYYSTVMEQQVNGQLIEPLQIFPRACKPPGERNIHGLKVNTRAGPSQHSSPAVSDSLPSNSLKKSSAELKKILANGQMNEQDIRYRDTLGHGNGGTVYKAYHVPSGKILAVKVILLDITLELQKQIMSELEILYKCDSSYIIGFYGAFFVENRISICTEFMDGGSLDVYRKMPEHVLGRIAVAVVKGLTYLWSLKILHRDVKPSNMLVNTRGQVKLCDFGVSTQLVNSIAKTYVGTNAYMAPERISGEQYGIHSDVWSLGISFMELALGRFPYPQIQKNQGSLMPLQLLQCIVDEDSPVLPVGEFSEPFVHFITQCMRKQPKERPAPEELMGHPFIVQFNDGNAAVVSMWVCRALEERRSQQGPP

[2] = target: T2, Serine/threonine-protein kinase Nek1 (Homo sapiens) (UniProt Q96PY6); experiment: Selectivity interaction (Ambit KINOMEscan and KiNATiv profiling in Jurkat cells) EUB0000090b NEK1; type: cell-based; conditions: at 1 µM
T2 sequence (whole entry): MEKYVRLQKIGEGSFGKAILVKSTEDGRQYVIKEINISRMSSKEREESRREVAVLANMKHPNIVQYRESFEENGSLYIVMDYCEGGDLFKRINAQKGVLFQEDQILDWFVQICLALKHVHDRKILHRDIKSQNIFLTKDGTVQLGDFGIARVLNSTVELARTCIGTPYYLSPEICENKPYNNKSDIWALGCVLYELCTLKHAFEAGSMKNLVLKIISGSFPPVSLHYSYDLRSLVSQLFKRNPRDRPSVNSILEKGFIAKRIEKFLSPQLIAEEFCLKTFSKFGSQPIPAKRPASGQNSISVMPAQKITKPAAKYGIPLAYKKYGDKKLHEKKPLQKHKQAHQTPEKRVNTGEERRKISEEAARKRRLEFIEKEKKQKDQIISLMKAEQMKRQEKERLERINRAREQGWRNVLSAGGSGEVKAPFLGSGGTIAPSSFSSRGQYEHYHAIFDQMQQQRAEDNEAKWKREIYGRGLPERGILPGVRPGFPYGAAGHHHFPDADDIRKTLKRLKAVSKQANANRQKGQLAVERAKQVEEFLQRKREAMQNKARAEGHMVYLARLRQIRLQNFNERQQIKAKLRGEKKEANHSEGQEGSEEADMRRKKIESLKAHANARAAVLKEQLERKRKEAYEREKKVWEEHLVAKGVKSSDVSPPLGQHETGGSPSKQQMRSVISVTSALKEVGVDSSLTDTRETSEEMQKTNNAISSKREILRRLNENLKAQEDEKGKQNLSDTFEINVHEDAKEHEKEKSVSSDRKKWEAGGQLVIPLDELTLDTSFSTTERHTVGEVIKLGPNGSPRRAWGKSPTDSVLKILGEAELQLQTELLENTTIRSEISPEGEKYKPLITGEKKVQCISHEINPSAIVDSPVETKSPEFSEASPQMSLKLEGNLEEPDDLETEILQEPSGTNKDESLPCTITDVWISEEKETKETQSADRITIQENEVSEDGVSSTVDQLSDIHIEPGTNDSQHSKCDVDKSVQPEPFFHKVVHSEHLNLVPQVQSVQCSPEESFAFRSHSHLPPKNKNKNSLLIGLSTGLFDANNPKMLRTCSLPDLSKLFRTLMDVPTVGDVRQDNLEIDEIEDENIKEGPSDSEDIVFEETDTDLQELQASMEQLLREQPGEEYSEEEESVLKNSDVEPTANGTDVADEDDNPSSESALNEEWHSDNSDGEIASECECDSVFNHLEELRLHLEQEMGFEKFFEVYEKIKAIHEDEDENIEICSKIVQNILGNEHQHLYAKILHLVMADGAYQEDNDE

[3] = target: Mitogen-activated protein kinase 8 (Homo sapiens, UniProt P45983); experiment: Selectivity interaction (Enzymatic assay) EUB0001199aCl MAPK8
[4] = target: Tyrosine-protein kinase Yes (Homo sapiens) (UniProt P07947); experiment: Selectivity interaction (KinomeScan (DiscoverX)) EUB0000695a YES1; conditions: at 100 nM
[5] = target: Cyclin-dependent kinase 17 (Homo sapiens) (UniProt Q00537); experiment: Selectivity interaction (KinomeScan (DiscoverX)) EUB0001079a CDK17; conditions: at 1 µM
Cyclin-dependent kinase 17 (Homo sapiens), sequence (Q00537 whole entry, looked up): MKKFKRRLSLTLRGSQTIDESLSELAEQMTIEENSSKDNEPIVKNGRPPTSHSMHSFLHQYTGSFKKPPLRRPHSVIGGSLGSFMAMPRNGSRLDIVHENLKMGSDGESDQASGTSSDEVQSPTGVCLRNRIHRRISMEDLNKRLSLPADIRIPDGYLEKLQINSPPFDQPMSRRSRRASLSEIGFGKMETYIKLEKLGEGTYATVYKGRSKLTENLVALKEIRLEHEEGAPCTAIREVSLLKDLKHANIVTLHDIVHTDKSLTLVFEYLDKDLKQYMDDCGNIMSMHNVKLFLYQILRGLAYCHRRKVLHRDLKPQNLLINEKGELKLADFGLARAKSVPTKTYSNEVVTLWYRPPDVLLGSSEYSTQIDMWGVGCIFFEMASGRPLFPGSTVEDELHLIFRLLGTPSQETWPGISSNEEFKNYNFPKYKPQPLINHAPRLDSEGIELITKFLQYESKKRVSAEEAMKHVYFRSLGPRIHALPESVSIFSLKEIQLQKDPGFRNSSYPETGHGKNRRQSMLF

Tyrosine-protein kinase Yes (Homo sapiens), sequence (P07947 2-543 limits assumed): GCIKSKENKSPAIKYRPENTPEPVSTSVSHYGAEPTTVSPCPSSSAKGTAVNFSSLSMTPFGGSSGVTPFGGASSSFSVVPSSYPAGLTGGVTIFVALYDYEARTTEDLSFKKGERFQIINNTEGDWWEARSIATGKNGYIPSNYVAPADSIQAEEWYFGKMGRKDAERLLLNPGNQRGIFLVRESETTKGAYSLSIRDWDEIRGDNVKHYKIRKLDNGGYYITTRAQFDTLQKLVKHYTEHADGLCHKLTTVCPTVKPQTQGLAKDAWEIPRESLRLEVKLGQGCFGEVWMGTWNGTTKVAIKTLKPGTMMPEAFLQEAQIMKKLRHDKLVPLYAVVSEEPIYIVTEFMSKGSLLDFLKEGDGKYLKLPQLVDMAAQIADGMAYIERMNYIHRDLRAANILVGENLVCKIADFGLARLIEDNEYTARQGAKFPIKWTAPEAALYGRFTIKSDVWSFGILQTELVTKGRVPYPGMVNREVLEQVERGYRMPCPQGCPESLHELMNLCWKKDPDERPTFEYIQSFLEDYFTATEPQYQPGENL
Mitogen-activated protein kinase 8, sequence (P45983 whole entry): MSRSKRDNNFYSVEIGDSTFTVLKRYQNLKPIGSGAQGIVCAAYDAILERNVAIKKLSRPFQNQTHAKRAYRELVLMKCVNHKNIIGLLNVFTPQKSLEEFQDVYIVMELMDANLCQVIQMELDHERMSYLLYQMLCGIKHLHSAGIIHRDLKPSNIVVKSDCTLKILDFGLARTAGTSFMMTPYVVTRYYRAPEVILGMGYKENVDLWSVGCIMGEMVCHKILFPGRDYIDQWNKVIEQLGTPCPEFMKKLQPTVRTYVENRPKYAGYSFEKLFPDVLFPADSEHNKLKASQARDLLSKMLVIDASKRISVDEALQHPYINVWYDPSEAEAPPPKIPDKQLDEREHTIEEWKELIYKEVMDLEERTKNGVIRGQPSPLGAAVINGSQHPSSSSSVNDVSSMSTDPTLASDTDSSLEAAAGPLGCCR

Compound: CN(C)C/C=C/C(=O)Nc1ccc(C(=O)N2CCCC(Nc3ncc(Cl)c(-c4c[nH]c5ccccc45)n3)C2)cc1 (stereo not given)
% of control [1]: 97% | % of control [2]: 100%

IC50 [3]: 1.02 µM
Compound: CN1Cc2nccc(-c3cn(C)nc3-c3ccc(F)cc3)c2C1=O

Compound: Cc1cc(F)c(C(=O)Nc2cccc(-c3nncn3C(C)C)n2)cc1-n1cnc(C2CC2)c1
% of control [4]: 73%

Compound: Nc1cnc(N2CCc3cc(S(=O)(=O)Nc4c(F)cc(Cl)cc4F)cc(N4CCCC4=O)c32)nc1 [TP-020n]
% of control [5]: 100%
